Test results: patent US6635293B2, “Finely dispersed carotenoid suspensions for use in foods and a process for their preparation” (Kemin Foods, L.C., priority 2001, dated 2003)

Assays:
[1] = test system: age-related macular degeneration; conditions: consumption of lutein and zeaxanthin together; cited from earlier work
[2] = Optical clarity of model beverage system containing SFAE/carotenoid composition (% transmittance at 800 nm); assay type: physicochemical; conditions: liquid conc. product 20% L-1695 ester
Method: (§1) Optical clarity was examined using SFAE/carotenoid liquid compositions in potable water and a model beverage system. The SFAE/carotenoid dry composition are used in a model beverage system. Liquid SFAE/carotenoid compositions were made by slowly mixing the appropriate weight percent of SFAE into the water until dissolved (Tables 2-5). At this point, the carotenoid was mixed into the SFAE/water mixture until evenly dispersed. The dry SFAE/lutein composition was prepared by removing the water from the liquid SFAE/lutein composition using a horizontal wiped film evaporator until the total moisture was less than 1%. These SFAE/carotenoid compositions were added either to potable water or to the model beverage system. The optical clarity was measured using a Hewlett Packard UV-Visible Spectrophotometer Model 8453. The instrument was blanked with water for the water trial and control beverage for the beverage trials. A quartz cuvette having a 1 cm path length is rinsed three times with the sample and then the transmittance at 800 nm is read from the spectrophotometer.

[3] = Optical clarity of water containing SFAE/carotenoid composition (% transmittance at 800 nm); assay type: physicochemical; conditions: liquid conc. product 20% L-1695 ester
Method: as §1

[4] = Stability against ringing and settling of SFAE/carotenoid compositions in model beverage system; assay type: physicochemical; conditions: 3 mg carotenoid/8 fl. oz. serving, 20% SFAE/1% lycopene
Excerpt: The objective of this experiment was to determine the stability of a sucrose fatty acid ester/carotenoid suspension in aqueous compositions. For the purposes of this discussion, stability will be defined as the resistance to produce a deposit of the carotenoid around the perimeter of the container in the region of the surface of the beverage (ringing). There are several factors that may affect the stability against ringing in aqueous compositions. It is possible that an optimal level of SFAE is required to keep the carotenoid in the suspension. The hydrophilic/lipophilic balance (HLB) of the SFAE may affect the interaction of the carotenoids with the aqueous composition. Additionally, the inclusion level of the SFAE/carotenoid suspension may determine the stability against ringing. […] These factors have been examined to determine whether there are optimal levels of SFAE and carotenoids that contribute to the stability against ringing. Stability against ringing was examined using SFAE/carotenoid liquid compositions in potable water and a model beverage system. The SFAE/carotenoid dry composition was used in a model beverage system. Liquid SFAE/carotenoid compositions were made by slowly mixing the appropriate weight percent of SFAE into the water until dissolved (Table 6). At this point the carotenoid was mixed into the SFAE/water mixture until evenly dispersed. […]

[5] = 0.5 mg carotenoid/8 oz serving, 5% carotenoid
[6] = 3.0 mg carotenoid/8 oz serving, 5% carotenoid
[7] = 1.5 mg carotenoid/8 oz serving, 5% carotenoid
[8] = 0.5 mg carotenoid/8 oz serving, 1% carotenoid
[9] = 3.0 mg carotenoid/8 oz serving, 1% carotenoid

SMILES	reduction in age-related macular degeneration [1]	Optical Clarity [2, 5]	Optical Clarity [2, 6]	Optical Clarity [3, 5]	Optical Clarity [3, 7]	Optical Clarity [3, 6]	Optical Clarity [2, 8]	Optical Clarity [2, 9]	Optical Clarity [3, 8]	Optical Clarity ([3]; 1.5 mg carotenoid/8 oz serving, 1% carotenoid)	Optical Clarity [3, 9]	settling (in words) [4]
CC1=C[C@H](O)CC(C)(C)[C@H]1/C=C/C(C)=C/C=C/C(C)=C/C=C/C=C(C)/C=C/C=C(C)/C=C/C1=C(C)C[C@@H](O)CC1(C)C [lutein, Lutein]	57%	97.609 % transmittance at 800 nm	83.017 % transmittance at 800 nm	104.73 % transmittance at 800 nm	101.01 % transmittance at 800 nm	93.735 % transmittance at 800 nm	–	–	–	–	–	–
CC1=C(/C=C/C(C)=C/C=C/C(C)=C/C=C/C=C(C)/C=C/C=C(C)/C=C/C2=C(C)C[C@@H](O)CC2(C)C)C(C)(C)C[C@H](O)C1 [zeaxanthin, Zeaxanthin]	57%	99.102 % transmittance at 800 nm	87.707 % transmittance at 800 nm	98.213 % transmittance at 800 nm	95.692 % transmittance at 800 nm	94.110 % transmittance at 800 nm	–	–	–	–	–	–
CC1=C(/C=C/C(C)=C/C=C/C(C)=C/C=C/C=C(C)/C=C/C=C(C)/C=C/C2=C(C)CCCC2(C)C)C(C)(C)CCC1 [β-carotene, β-Carotene]	–	99.314 % transmittance at 800 nm	89.643 % transmittance at 800 nm	96.759 % transmittance at 800 nm	94.275 % transmittance at 800 nm	87.407 % transmittance at 800 nm	–	–	–	–	–	–
CC(C)=CCC/C(C)=C/C=C/C(C)=C/C=C/C(C)=C/C=C/C=C(C)/C=C/C=C(C)/C=C/C=C(\C)CCC=C(C)C [lycopene, Lycopene]	–	–	–	–	–	–	94.934 % transmittance at 800 nm	50.180 % transmittance at 800 nm	97.989 % transmittance at 800 nm	88.387 % transmittance at 800 nm	72.401 % transmittance at 800 nm	considerable amount of settling
